Assay results: US8846699B2, “Quinazoline derivatives as a multiplex inhibitor and method for the preparation thereof” (Hanmi Pharm. Co., Ltd., priority 2005, dated 2014)

Columns and labels:
[1] = test system: Human Umbilical Vein Endothelial Cell (HUVEC); test: Inhibitory effect on growth of human umbilical vein endothelial cell (HUVEC), MTS; format: cell-based; conditions: 10 ng/ml VEGF, absorbance 490 nm
VEGFR2 (KDR) = VEGFR2 (KDR) (Homo sapiens (Human), UniProt P35968); test: VEGFR2 (KDR) enzyme assay, fluorescence polarization; format: biochemical; conditions: 5 μM ATP, poly(Glu, Tyr) substrate
Method in brief: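 Autophosphorylation read by fluorescence polarization: VEGFR2 (Proquinase) at 200 ng/10 μl with 5 μM ATP and 10 ng/ml poly(Glu,Tyr) 4:1, in 20 mM HEPES pH 7.4, 5 mM MgCl2, 2 mM MnCl2, 50 μM Na3VO4. Reaction 1 h at room temperature, EDTA stop, then anti-phosphotyrosine antibody/tracer for 30 min in the dark.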

EGFR1 (HER-1) = EGFR1 (HER-1) (Homo sapiens (Human), UniProt P00533); test: EGFR1 (HER-1) enzyme assay, fluorescence polarization; format: biochemical; conditions: 100 μM ATP, poly(Glu, Tyr) substrate
[2] = test system: skin cancer cell line, A431; test: Inhibitory effect on growth of cancer cell line A431, SRB; format: cell-based; conditions: overexpressed EGFR1 (HER-1)
Method in brief: (§1)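 Cells were cultured in DMEM with 10% FBS. Compounds were applied at 10 μM with 10-fold serial dilution to 10^−4, DMSO <1%, for 72 h at 37 °C. Cells were then TCA-fixed and stained with 0.4% SRB, and absorbance was read at 570 nm after solubilisation in 10 mM Tris base.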

[3] = test system: breast cancer cell line, SK-Br3; test: Inhibitory effect on growth of cancer cell line SK-Br3, SRB; format: cell-based; conditions: overexpressed EGFR2 (HER-2)
Method in brief: as §1

[4] = test system: colon and rectal cancer cell line, SW-620; test: Inhibitory effect on growth of cancer cell line SW-620, SRB; format: cell-based; conditions: not having overexpressed EGFR and EGFR2
Method in brief: as §1

EGFR1 (HER-1), sequence (P00533 25-1210): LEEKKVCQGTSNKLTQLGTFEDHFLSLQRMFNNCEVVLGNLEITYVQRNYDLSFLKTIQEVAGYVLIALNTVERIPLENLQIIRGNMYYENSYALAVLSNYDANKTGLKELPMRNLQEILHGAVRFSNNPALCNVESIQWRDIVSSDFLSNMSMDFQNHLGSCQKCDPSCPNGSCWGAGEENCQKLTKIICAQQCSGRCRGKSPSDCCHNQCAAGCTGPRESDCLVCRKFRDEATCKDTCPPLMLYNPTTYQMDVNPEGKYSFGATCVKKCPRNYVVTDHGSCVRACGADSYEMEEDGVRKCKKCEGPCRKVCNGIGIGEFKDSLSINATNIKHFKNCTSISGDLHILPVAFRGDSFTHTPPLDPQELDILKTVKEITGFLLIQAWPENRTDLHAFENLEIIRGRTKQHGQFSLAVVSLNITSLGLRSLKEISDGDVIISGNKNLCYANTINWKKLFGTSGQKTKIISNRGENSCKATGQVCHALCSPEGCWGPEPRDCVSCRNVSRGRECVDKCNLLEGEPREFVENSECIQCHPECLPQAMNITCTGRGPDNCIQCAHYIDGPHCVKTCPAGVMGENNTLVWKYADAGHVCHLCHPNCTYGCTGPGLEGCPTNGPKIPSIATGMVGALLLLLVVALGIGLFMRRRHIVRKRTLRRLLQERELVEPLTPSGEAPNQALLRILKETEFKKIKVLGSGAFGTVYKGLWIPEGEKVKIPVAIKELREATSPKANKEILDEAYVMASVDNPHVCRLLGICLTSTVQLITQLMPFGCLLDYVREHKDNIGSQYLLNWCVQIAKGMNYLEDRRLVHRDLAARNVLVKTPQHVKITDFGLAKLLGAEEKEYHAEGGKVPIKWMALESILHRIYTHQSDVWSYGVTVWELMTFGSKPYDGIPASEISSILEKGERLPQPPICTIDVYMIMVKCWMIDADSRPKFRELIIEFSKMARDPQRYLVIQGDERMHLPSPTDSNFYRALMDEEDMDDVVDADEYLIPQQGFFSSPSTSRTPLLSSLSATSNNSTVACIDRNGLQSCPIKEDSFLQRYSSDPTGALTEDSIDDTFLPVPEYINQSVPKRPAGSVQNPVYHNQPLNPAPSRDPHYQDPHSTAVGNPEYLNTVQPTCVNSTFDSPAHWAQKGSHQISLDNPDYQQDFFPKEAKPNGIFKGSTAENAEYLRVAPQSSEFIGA
VEGFR2 (KDR), sequence (P35968 20-1356): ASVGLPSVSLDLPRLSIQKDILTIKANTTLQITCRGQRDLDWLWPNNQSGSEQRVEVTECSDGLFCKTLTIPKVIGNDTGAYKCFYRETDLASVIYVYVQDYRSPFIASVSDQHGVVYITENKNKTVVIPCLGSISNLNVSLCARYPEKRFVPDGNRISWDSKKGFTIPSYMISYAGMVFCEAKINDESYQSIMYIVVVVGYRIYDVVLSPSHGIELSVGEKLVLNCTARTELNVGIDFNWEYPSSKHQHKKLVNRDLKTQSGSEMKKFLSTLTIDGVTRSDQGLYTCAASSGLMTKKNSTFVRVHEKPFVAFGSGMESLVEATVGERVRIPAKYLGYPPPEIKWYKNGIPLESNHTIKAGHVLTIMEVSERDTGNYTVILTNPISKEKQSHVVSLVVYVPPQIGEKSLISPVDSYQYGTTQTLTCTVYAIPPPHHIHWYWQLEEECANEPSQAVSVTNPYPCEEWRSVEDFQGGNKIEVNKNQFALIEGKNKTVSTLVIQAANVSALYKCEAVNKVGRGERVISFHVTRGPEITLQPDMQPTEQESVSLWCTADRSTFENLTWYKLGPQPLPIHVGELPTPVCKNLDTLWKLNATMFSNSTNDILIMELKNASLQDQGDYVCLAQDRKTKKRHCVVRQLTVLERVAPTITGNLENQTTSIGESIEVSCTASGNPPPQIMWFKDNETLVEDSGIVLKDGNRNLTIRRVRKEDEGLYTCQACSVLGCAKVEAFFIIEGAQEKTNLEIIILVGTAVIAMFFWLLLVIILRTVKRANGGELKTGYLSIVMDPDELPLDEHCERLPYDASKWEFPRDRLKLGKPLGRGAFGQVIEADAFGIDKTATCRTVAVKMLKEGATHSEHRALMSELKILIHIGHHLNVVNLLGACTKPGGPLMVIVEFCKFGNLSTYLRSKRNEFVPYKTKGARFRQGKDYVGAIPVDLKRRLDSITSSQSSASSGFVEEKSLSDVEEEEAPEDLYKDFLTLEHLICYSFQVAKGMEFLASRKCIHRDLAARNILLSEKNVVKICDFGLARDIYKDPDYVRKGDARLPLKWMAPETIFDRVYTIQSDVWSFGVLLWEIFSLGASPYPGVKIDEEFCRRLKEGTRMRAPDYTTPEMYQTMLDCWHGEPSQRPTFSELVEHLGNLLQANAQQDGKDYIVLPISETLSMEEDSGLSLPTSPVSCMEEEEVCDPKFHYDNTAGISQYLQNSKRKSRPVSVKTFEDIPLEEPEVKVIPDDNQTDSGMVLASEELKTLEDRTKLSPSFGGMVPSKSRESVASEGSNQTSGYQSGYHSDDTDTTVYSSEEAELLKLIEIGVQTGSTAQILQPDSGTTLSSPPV

| SMILES | IC50 ([1]; Homo sapiens, 96 h) | IC50 (VEGFR2 (KDR)) | IC50 (EGFR1 (HER-1)) | IC50 ([2]; Homo sapiens, A-431, 72 h) | IC50 ([3]; Homo sapiens, SK-BR-3, 72 h) | IC50 ([4]; Homo sapiens, 72 h) | IC50 ([1]; 96 hours) | IC50 ([2]; 72 hours) | IC50 ([3]; 72 hours) | IC50 ([4]; 72 hours) |
| --- | --- | --- | --- | --- | --- | --- | --- | --- | --- | --- |
| C=CC(=O)Nc1cc2c(Nc3ccc(Br)c(F)c3F)ncnc2cc1OCCNC(=O)CCN1CCCCC1 [Example 126, N-{4-(4-bromo-2,3-difluoro-phenylamino)-7-[2-(3-piperidin-1-yl-propionylamino)-ethoxy]-quinazolin-6-yl}-acrylamide] | 286 nM | 140 nM | 894 nM | 1250 nM | 1370 nM | 7530 nM | – | – | – | – |
| C=CC(=O)Nc1cc2c(Nc3ccc(Br)cc3F)ncnc2cc1OCC1CCN(C(=O)CN(C)C)CC1 [Example 10, N-{4-(4-bromo-2-fluoro-phenylamino)-7-[1-(2-dimethylamino-acetyl)-piperidin-4-ylmethoxy]-quinazolin-6-yl}-acrylamide] | 49 nM | 55 nM | 6 nM | 8 nM | 330 nM | 2760 nM | – | – | – | – |
| C=CC(=O)Nc1cc2c(Nc3ccc(Br)cc3F)ncnc2cc1OCC(C)NC(=O)CN(C)C (stereo not drawn) [Example 153] | – | 433 nM | 172 nM | – | – | – | 521 nM | 160 nM | 207 nM | 9570 nM |
| C=CC(=O)Nc1cc2c(Nc3ccc(Br)cc3F)ncnc2cc1OCCNC(=O)CS(C)(=O)=O [Example 47, N-{4-(4-bromo-2-fluoro-phenylamino)-7-[2-(2-methanesulfonyl-acetylamino)-ethoxy]-quinazolin-6-yl}-acrylamide] | 269 nM | 209 nM | 24 nM | 27 nM | 67 nM | 9570 nM | – | – | – | – |
| C=CC(=O)Nc1cc2c(Nc3cc(Cl)c(Cl)cc3F)ncnc2cc1OCCNC(C)=O [Example 121, N-[7-(2-acetylamino-ethoxy)-4-(4,5-dichloro-2-fluoro-phenylamino)-quinazolin-6-yl]-acrylamide] | 383 nM | 153 nM | 5 nM | 7 nM | 22 nM | 10000 nM | – | – | – | – |
| C=CC(=O)Nc1cc2c(Nc3ccc(Br)cc3F)ncnc2cc1OCC1CCN(C(=O)CS(C)(=O)=O)CC1 [Example 3, N-{4-(4-bromo-2-fluoro-phenylamino)-7-[1-(2-methanesulfonyl-acetyl)-piperidin-4-ylmethoxy]-quinazolin-6-yl}-acrylamide] | 90 nM | 108 nM | 26 nM | 48 nM | 216 nM | 6310 nM | – | – | – | – |
| C=CC(=O)Nc1cc2c(Nc3ccc(Br)cc3F)ncnc2cc1OCCNC(=O)NC(C)CC (stereo not drawn) [Example 38, N-{4-(4-bromo-2-fluoro-phenylamino)-7-[2-(3-sec-butyl-ureido)-ethoxy]-quinazolin-6-yl}-acrylamide] | 367 nM | 324 nM | 20 nM | 21 nM | 245 nM | 2580 nM | – | – | – | – |
| C=CC(=O)Nc1cc2c(Nc3ccc(Br)cc3F)ncnc2cc1OCCNC(=O)CN1CC=CC1 [Example 108, N-{4-(4-bromo-2-fluoro-phenylamino)-7-[2-(2-2,5-dihydro-pyrrol-1-yl-acetylamino)-ethoxy]-quinazolin-6-yl}-acrylamide] | 497 nM | 486 nM | 32 nM | 41 nM | 103 nM | 2950 nM | – | – | – | – |
| C=CC(=O)Nc1cc2c(Nc3cc(Cl)c(Cl)cc3F)ncnc2cc1OCCNC(=O)COC [Example 138, N-{4-(4,5-dichloro-2-fluoro-phenylamino)-7-[2-(2-methoxy-acetylamino)-ethoxy]-quinazolin-6-yl}-acrylamide] | 845 nM | 823 nM | 20 nM | 21 nM | 39 nM | 721 nM | – | – | – | – |
| C=CC(=O)Nc1cc2c(Nc3ccc(Br)c(Cl)c3F)ncnc2cc1OCCNC(=O)CN(C)C [Example 143, N-{4-(4-bromo-3-chloro-2-fluoro-phenylamino)-7-[2-(2-dimethylamino-acetylamino)-ethoxy]-quinazolin-6-yl}-acrylamide] | 239 nM | 87 nM | 19 nM | 11 nM | 7 nM | 2810 nM | – | – | – | – |
| C=CC(=O)Nc1cc2c(Nc3ccc(Br)cc3F)ncnc2cc1OC[C@H](C)NC(C)=O [Example 83, (S)—N-[7-(2-acetylamino-propoxy)-4-(4-bromo-2-fluoro-phenylamino)-quinazolin-6-yl]-acrylamide] | 106 nM | 71 nM | 98 nM | 113 nM | 933 nM | 2870 nM | – | – | – | – |
| C=CC(=O)Nc1cc2c(Nc3ccc(Br)c(Cl)c3F)ncnc2cc1OCCNC(=O)NCC [Example 168, N-{4-(4-bromo-3-chloro-2-fluoro-phenylamino)-7-[2-(3-ethyl-ureido)-ethoxy]-quinazolin-6-yl}-acrylamide] | 117 nM | 38 nM | 8 nM | 12 nM | 32 nM | 10000 nM | – | – | – | – |
| C=CC(=O)Nc1cc2c(Nc3ccc(Br)c(Cl)c3F)ncnc2cc1OCCNC(=O)CCN(CC)CC [Example 144, N-{4-(4-bromo-3-chloro-2-fluoro-phenylamino)-7-[2-(3-diethylamino-propionylamino)-ethoxy]-quinazolin-6-yl}-acrylamide] | 154 nM | 54 nM | 7 nM | 6 nM | 12 nM | 721 nM | – | – | – | – |
